Assay results as given in ChEMBL document CHEMBL5154896, “Discovery of a Novel Class of d-Amino Acid Oxidase Inhibitors Using the Schrödinger Computational Platform” (J Med Chem, 2022).
One block for each molecule: values may come before it. Activity calls are given as the source filed them. The rule behind the calls is not given here.

Experiments:
Mus musculus [1] = experiment: Effect of compound in C57BL/6 mouse catalepsy model assessed as no catalepsy at 150 mg/kg, po bid administered for every 4 hrs; type: functional, organism-based
D-amino-acid oxidase [2] = target: D-amino-acid oxidase (Mus musculus, UniProt P18894); experiment: Inhibition of full length mouse DAO transfected with CHO-K1 cells incubated for 30 mins by Amplex red and horseradish peroxidase based fluorescence assay; type: cell-based
[3] = target: T1, Prostaglandin G/H synthase 2 (Homo sapiens, UniProt P35354); experiment: Inhibition of human COX2
T1 sequence (P35354 whole entry): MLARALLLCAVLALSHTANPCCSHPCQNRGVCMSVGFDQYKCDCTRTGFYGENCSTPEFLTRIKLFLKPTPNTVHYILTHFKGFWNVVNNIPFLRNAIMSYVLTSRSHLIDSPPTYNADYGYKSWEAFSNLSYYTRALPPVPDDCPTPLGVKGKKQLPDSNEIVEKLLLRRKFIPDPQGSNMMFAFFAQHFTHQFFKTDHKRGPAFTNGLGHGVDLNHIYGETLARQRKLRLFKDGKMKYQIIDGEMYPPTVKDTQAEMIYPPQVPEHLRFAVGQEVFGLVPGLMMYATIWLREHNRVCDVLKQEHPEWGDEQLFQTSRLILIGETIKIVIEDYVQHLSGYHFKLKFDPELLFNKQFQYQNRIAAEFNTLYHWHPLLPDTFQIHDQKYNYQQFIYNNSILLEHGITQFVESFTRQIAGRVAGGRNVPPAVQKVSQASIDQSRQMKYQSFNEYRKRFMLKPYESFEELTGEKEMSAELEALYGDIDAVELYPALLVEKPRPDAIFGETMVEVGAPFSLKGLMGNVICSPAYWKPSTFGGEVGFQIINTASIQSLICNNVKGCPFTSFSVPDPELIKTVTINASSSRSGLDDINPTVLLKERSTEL

[4] = target: T2, Polyunsaturated fatty acid 5-lipoxygenase (Homo sapiens, UniProt P09917); experiment: Inhibition of human recombinant 5-LOX incubated for 5 mins by fluorimetry
T2 sequence (P09917 whole entry): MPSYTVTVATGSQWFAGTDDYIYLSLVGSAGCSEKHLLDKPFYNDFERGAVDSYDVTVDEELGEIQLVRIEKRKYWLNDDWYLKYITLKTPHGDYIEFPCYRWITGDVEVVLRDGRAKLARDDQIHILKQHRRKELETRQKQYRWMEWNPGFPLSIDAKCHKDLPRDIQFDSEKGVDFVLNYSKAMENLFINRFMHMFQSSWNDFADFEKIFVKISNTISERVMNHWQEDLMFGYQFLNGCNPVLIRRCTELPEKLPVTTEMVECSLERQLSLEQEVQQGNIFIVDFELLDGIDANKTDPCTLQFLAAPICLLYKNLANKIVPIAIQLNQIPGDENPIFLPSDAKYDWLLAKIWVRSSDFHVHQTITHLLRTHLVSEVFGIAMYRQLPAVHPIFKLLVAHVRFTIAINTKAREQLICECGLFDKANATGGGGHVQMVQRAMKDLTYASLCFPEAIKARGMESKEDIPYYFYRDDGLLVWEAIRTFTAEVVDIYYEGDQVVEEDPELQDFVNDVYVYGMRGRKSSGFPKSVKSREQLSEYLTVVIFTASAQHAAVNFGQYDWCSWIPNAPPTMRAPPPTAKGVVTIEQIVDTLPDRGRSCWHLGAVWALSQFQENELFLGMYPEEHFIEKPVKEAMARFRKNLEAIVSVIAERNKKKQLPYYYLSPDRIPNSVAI

Adenosine receptor A3 = target: T3, Adenosine receptor A3 (Homo sapiens, UniProt P0DMS8); experiment: Inhibition of recombinant human adenosine A3 GPCR incubated for 120 mins by scintillation counting based radiometry assay
T3 sequence (P0DMS8 whole entry): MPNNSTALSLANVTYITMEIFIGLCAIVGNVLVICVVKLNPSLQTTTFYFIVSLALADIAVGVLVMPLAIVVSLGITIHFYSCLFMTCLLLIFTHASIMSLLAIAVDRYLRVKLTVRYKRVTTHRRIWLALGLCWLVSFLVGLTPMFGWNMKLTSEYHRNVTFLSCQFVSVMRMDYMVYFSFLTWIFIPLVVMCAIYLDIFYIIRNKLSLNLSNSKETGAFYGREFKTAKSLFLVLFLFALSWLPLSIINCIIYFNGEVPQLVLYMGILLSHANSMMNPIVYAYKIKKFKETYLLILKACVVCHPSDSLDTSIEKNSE

Glucocorticoid receptor = target: T4, Glucocorticoid receptor (Homo sapiens, UniProt P04150); experiment: Inhibition of GR human glucocorticoid NHR incubated for 360 mins by scintillation counting based radiometry assay
T4 sequence (P04150 whole entry): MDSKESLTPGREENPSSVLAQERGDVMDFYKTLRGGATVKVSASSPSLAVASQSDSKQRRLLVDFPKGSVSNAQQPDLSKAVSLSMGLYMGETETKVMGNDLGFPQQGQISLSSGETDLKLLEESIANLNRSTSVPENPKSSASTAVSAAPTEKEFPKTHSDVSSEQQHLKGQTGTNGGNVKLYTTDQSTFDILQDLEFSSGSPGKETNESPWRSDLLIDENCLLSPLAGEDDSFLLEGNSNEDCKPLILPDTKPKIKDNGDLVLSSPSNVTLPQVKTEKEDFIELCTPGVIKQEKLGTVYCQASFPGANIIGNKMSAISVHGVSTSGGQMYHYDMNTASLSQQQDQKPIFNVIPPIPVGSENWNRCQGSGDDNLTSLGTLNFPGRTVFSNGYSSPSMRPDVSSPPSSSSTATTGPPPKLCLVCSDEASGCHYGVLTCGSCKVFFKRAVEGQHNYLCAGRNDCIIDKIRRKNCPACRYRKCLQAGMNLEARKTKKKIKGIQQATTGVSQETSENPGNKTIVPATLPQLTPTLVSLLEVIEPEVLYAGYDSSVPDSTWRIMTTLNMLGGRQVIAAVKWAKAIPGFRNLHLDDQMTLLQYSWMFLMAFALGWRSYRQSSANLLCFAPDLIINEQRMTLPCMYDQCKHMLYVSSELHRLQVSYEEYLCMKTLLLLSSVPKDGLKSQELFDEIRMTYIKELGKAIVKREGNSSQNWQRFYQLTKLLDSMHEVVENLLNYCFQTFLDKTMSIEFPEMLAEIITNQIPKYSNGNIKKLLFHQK

[5] = target: T5, Peroxisome proliferator-activated receptor gamma (Homo sapiens, UniProt P37231); experiment: Inhibition of recombinant human PPAR gamma NHR incubated for 120 mins by scintillation counting based radiometry assay
T5 sequence (P37231 whole entry): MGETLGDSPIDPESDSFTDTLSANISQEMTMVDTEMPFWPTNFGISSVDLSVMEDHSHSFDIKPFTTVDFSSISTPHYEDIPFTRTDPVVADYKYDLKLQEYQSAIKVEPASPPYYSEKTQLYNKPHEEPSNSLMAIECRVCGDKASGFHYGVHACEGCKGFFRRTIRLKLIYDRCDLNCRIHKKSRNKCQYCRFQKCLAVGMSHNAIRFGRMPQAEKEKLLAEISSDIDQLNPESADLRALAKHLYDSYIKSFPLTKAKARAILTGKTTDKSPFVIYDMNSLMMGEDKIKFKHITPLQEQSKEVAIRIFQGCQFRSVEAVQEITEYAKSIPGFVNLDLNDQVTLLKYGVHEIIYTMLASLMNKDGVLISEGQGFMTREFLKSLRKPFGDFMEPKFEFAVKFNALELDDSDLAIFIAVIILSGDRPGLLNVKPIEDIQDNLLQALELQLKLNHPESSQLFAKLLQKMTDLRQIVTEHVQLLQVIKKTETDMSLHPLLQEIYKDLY

[6] = In vivo receptor occupancy at DAO in C57BL/6 mouse cerebellum at 150 mg/kg, po measured after 4 hrs relative to control; type: functional
[7] = In vivo receptor occupancy at DAO in C57BL/6 mouse cerebellum at 150 mg/kg, po measured after 6 hrs relative to control; type: functional
[8] = In vivo receptor occupancy at DAO in C57BL/6 mouse cerebellum at 150 mg/kg, po measured after 10 hrs relative to control; type: functional
Mus musculus [9] = experiment: Effect of compound in C57BL/6 mouse catalepsy model assessed as decrease in plasma prolactin level at 150 mg/kg, po bid administered for every 4 hrs; type: functional, organism-based
[10] = Unbound drug concentration in C57Bl/6 mouse brain at 2 mg/kg, po or 0.5 mg/kg,iv by LC-MS-MS analysis; type: ADME, organism-based; conditions: C57Bl/6, mouse, brain
D-amino-acid oxidase [11] = target: D-amino-acid oxidase (Homo sapiens, UniProt P14920); experiment: Inhibition of recombinant full length human DAO preincubated with compound for 20 mins measured after 4 hrs by Amplex red and horseradish peroxidase based fluorescence assay
[12] = Apparent permeability across apical to basolateral membrane in MDCK-MDR1 cells by LC-MS/MS analysis; conditions: dog
[13] = Efflux ratio of apparent permeability across basolateral to apical side over apical to basolateral side in MDCK-MDR1 cells; conditions: dog
[14] = Volume of distribution at steady state in C57/BL6 mouse at 2 mg/kg, po or 0.5 mg/kg,iv by LC-MS-MS analysis; type: ADME, organism-based; conditions: in vivo
[15] = Half life in C57/BL6 mouse at 0.5 mg/kg,iv by LC-MS-MS analysis; type: ADME, organism-based; conditions: in vivo
[16] = Dose normalized AUC in C57/BL6 mouse at 2 mg/kg, po by LC-MS-MS analysis; type: ADME, organism-based; conditions: in vivo
[17] = Oral bioavailability in C57/BL6 mouse at 2 mg/kg by LC-MS-MS analysis; type: ADME, organism-based; conditions: in vivo
[18] = Brain to plasma permeability coefficient, Kp in C57Bl/6 mouse 2 mg/kg, po or 0.5 mg/kg,iv by LC-MS-MS analysis; type: ADME, organism-based; conditions: C57Bl/6, mouse, brain and plasma, read-out: Kp
[19] = Unbound drug concentration in C57Bl/6 mouse plasma at 2 mg/kg, po or 0.5 mg/kg,iv by LC-MS-MS analysis; type: ADME, organism-based; conditions: C57Bl/6, mouse, plasma
[20] = Unbound brain-to-plasma concentration ratio in C57Bl/6 mouse at 2 mg/kg, po or 0.5 mg/kg,iv by LC-MS-MS analysis; type: ADME, organism-based; conditions: C57Bl/6, mouse, brain and plasma, read-out: K(p,uu,brain)

D-amino-acid oxidase (Mus musculus, UniProt P18894), sequence (P18894 whole entry): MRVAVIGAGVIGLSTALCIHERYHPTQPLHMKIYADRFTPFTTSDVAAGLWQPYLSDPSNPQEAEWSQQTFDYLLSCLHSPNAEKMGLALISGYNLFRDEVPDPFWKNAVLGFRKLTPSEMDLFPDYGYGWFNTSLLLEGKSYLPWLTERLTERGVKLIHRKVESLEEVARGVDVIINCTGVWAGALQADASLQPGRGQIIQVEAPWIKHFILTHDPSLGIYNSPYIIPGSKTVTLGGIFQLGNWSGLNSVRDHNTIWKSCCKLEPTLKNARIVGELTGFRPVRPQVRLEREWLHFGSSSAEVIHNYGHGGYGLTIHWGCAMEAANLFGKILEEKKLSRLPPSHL
D-amino-acid oxidase (Homo sapiens, UniProt P14920), sequence (P14920 whole entry): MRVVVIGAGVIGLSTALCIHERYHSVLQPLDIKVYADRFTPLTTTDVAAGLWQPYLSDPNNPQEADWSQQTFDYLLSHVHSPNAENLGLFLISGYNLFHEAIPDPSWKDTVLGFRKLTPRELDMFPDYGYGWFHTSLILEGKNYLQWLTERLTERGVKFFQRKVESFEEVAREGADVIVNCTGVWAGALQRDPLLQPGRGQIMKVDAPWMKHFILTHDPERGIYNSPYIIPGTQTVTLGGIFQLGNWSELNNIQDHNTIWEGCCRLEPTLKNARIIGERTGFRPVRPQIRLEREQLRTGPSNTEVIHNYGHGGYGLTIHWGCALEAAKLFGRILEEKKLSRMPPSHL

EC50 (D-amino-acid oxidase [2]): 510 nM | IC50 [3]: > 10 µM | IC50 [4]: > 10 µM | IC50 (Adenosine receptor A3): > 10 µM | IC50 (Glucocorticoid receptor): > 10 µM | IC50 [5]: > 10 µM
Structure (SMILES): O=c1[nH]cc(CSc2ccc(C(F)(F)F)cc2)[nH]c1=O
Activity (Mus musculus [1]): Active | Activity [6]: 75% | Activity [7]: 86% | Activity [8]: 59% | Activity (Mus musculus [9]): Active

fraction unbound [10]: 0.26 | IC50 (D-amino-acid oxidase [11]): 120 nM | Papp A→B [12]: 8.8 ×10⁻⁶ cm/s | efflux ratio [13]: 0.8 | Vdss [14]: 0.2 L/kg | half-life [15]: 72 min | AUC/dose [16]: 6266 ng·h/mL | bioavailability [17]: 34% | Kp [18]: 0.004 | fraction unbound [19]: 0.22 | Kp uu [20]: 0.005
Structure (SMILES): O=c1[nH]c2ccsc2[nH]c1=O

EC50 (D-amino-acid oxidase [2]): 620 nM | IC50 [3]: > 10 µM | IC50 [4]: > 10 µM | IC50 (Adenosine receptor A3): > 10 µM | IC50 (Glucocorticoid receptor): > 10 µM | IC50 [5]: > 10 µM
Structure (SMILES): O=c1[nH]cc(CSc2ccc(C(F)F)cc2)[nH]c1=O
